One experiment deals with T1, PI3Kα H1047R (Homo sapiens, UniProt P42336, H1047R).
T1 construct: The MDA-MB-453 (ATCC-HTB-131) cell line (PI3Kα H1047R); host or cells: MDA-MB-453
Put plainly: PI3Kα H1047R mutant in vitro cell based assay, MDA-MB-453 cells (AlphaLisa SureFire). Conditions: MDA-MB-453 cell line, 0% FBS, 3 hours treatment. The essentials:
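MDA-MB-453 cells (endogenous PI3Kα H1047R) were treated for 3 h in serum-free MEM containing 1 μg/mL insulin, with 10-point 1:3 dilutions in 0.3% DMSO. Lysates were read by AlphaLisa SureFire. IC50 came from a 4-parameter logistic fit of duplicate % inhibition, normalized to DMSO (max) and 1 μM GDC-0032 (min).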
A general note: Alpha assays give light when donor and acceptor beads are brought close together.

The next experiment concerns the target PI3Kα E545K (Homo sapiens, UniProt P42336, E545K). Put plainly: PI3Kα E545K mutant in vitro cell based assay, MDA-MB-361 cells. On the set-up: MDA-MB-361 (ATCC-HTB-27) cell line (PI3Kα E545K); host or cells: MDA-MB-361. Conditions: MDA-MB-361 cell line, 0% FBS, no insulin, 3 hours treatment. The essentials: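 MDA-MB-361 cells (PI3Kα E545K) seeded in serum-free MEM assay medium without insulin, attached overnight, then treated 3 h with compound (10-point 1:3 series, 0.3% DMSO). AlphaLISA SureFire readout of lysates. IC50 by 4-parameter fit, normalized to DMSO (max) and 1 μM GDC-0032 (min).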

pIC50: −log10 of the molar value.

PI3Kα E545K, sequence (P42336 whole entry E545K): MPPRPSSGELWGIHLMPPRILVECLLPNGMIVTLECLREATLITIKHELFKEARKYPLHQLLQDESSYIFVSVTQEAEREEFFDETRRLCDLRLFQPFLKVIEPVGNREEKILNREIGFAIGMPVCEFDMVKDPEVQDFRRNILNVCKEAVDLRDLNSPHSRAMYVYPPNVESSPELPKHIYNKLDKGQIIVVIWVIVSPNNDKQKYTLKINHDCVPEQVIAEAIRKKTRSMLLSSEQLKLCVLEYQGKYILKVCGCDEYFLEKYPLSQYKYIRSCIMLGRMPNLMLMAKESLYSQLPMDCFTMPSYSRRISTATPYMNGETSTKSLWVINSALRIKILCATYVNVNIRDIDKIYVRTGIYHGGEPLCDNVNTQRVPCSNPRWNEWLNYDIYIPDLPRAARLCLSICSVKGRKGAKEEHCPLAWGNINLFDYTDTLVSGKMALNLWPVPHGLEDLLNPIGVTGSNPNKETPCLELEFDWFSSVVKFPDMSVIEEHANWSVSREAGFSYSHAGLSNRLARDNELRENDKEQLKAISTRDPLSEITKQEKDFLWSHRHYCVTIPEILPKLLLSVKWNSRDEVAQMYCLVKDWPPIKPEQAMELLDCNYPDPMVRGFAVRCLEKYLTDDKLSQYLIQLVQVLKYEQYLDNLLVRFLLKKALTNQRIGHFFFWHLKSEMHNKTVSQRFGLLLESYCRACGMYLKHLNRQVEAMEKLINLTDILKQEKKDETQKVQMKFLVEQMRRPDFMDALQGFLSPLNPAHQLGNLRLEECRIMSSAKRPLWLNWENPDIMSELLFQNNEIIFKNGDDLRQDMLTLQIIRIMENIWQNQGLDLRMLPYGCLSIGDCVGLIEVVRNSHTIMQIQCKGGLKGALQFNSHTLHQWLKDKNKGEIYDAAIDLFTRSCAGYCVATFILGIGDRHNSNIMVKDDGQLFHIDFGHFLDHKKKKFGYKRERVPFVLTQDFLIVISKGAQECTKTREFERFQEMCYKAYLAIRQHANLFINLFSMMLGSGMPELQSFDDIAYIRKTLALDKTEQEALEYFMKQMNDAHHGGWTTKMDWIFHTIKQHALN
PI3Kα E545K, sequence (P27986 whole entry partner): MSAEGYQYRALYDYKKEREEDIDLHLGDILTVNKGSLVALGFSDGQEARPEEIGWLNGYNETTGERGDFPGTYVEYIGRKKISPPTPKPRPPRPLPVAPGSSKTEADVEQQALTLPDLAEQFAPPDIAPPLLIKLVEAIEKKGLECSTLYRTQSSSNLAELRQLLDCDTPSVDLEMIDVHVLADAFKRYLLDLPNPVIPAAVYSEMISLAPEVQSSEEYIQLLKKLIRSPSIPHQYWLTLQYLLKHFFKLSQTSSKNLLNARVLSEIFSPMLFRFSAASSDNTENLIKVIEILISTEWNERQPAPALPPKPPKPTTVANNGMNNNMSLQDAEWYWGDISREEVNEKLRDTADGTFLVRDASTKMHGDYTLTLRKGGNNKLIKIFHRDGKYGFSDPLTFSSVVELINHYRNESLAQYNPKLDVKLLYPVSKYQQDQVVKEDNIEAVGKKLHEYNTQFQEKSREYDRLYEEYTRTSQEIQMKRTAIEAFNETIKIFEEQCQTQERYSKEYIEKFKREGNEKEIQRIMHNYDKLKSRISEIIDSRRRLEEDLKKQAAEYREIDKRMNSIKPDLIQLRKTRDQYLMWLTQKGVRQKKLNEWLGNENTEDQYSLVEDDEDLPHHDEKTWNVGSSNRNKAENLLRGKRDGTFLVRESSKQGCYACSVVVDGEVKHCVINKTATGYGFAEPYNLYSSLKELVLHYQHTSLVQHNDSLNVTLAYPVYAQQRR
T1 sequence (P42336 whole entry H1047R): as the sequence (P42336 whole entry E545K) above, with K545E, H1047R counted along it
T1 sequence (P27986 whole entry partner): as the sequence (P27986 whole entry partner) above

Regarding `Cc1cc([C@@H](C)Oc2ccc(Cl)nc2-c2noc(=O)[nH]2)c2oc(-c3ccc4c(c3)OC(F)(F)O4)c(C)c(=O)c2c1` [Example 46A, 3-[6-Chloro-3-[(1R)-1-[2-(2,2-difluoro-1,3-benzodioxol-5-yl)-3,6-dimethyl-4-oxo-chromen-8-yl]ethoxy]-2-pyridyl]-4H-1,2,4-oxadiazol-5-one], the pIC50 – broadly, the IC50 on a negative log10 scale, so that one unit is a factor of ten – at PI3Kα H1047R is above 7.00; against PI3Kα E545K, above 6.30.
In the same order, the values of `CC(=O)Nc1ccc(-c2oc3c([C@@H](C)Oc4ccc(Cl)nc4C(N)=O)cc(C)cc3c(=O)c2C)cc1` [Example 58C, 3-[(1R)-1-[2-(4-Acetamidophenyl)-3,6-dimethyl-4-oxo-chromen-8-yl]ethoxy]-6-chloro-pyridine-2-carboxamide] are above 7.00 and above 6.30.
Take `Cc1cc([C@@H](C)Oc2ccc(Cl)nc2C(N)=O)c2oc(-c3cc(F)c4nn(C)cc4c3)c(C)c(=O)c2c1` [Example 17B, 6-Chloro-3-[(1R)-1-[2-(7-fluoro-2-methyl-indazol-5-yl)-3,6-dimethyl-4-oxo-chromen-8-yl]ethoxy]pyridine-2-carboxamide]: the pIC50 was above 7.00 on PI3Kα H1047R and above 6.30 at PI3Kα E545K.
Regarding `Cc1cc([C@@H](C)Oc2ccc(Cl)nc2NS(C)(=O)=O)c2oc(-c3cnn(C)c3)c(C)c(=O)c2c1` [Example 149A, N-[6-Chloro-3-[(1R)-1-[3,6-dimethyl-2-(1-methylpyrazol-4-yl)-4-oxo-chromen-8-yl]ethoxy]-2-pyridyl]methanesulfonamide], the pIC50 at PI3Kα E545K is above 6.30.
Consider `Cc1cc([C@@H](C)Oc2ccc(Br)nc2C(N)=O)c2oc(-c3ccc4nn(C)cc4c3)c(C)c(=O)c2c1` [Example 81C, 6-Bromo-3-[(1R)-1-[3,6-dimethyl-2-(2-methylindazol-5-yl)-4-oxo-chromen-8-yl]ethoxy]pyridine-2-carboxamide], for which the pIC50 against PI3Kα H1047R is above 7.00; against PI3Kα E545K, above 6.30.

(Values after US20240182460A1, “ALLOSTERIC CHROMENONE INHIBITORS OF PHOSPHOINOSITIDE 3-KINASE (PI3K) FOR THE TREATMENT OF DISEASE” (PETRA PHARMA CORPORATION, priority 2022, published 2024).)
